Patent publication US20140057837A1, “METHODS AND COMPOSITIONS FOR THE "BROWNING" OF WHITE FAT” (priority 2012, published 2014)
“Also recorded” adds a separate entry of the source.

Experiments:
[1] = system: white adipose tissue; test: Propranolol experiment: EE-induced gene program in white adipose tissue (qRT-PCR); format: in vivo, C57BL/6 mice; conditions: propranolol in drinking water (0.5 g/L), EE or control housing for 5 weeks
Description: We randomly assigned 40 C57BL/6 mice, 3 weeks of age, to live in enriched or control cages supplied with propranolol in drinking water (0.5 g/L). We collected blood 3 weeks after enrichment and dissected fat pads after 5 weeks enrichment.

[2] = system: retroperitoneal white adipose tissue; test: Norepinephrine stimulation in vivo: gene expression in white fat; set-up: species or system mice; conditions: NE 0.3 mg/kg s.c., 4 hours after injection, 30° C.
Experimental: Norepinephrine Stimulation In Vivo.
To measure the norepinephrine-induced gene expression changes in white fat, the mice after 6 weeks enrichment or control housing were anesthetized with pentobarbital (90 mg/kg, i.p.) and injected with 0.3 mg/kg norepinephrine (s.c.). The mice were maintained at 30° C. throughout the experiment. Fat pads were dissected 4 h after norepinephrine injection. qRT-PCR was used to profile gene expression in white fat.

CC(C)NCC(O)COc1cccc2ccccc12 (stereo not shown) [Propranolol, propranolol]
EE-associated molecular features of white adipose tissue [1]: efficiently blocked the molecular features associated with EE; also recorded: blocked enrichment-associated molecular features of white adipose tissue

NC[C@H](O)c1ccc(O)c(O)c1 [NE, norepinephrine]
Lep expression in EE retroperitoneal white adipose tissue ([2]; EE mice): further reduced significantly | Ucp1 expression in EE retroperitoneal white adipose tissue ([2]; EE mice): highly increased | gene expression changes in control retroperitoneal white adipose tissue ([2]; control-housed mice): failed to induce significant changes
